Experimental data from patent US3985761A, “Nitrothiazolyl derivatives of nitrostyrene” (priority 1974, dated 1976).
Converted amounts (≈) assume the structure as drawn. Where two headings read alike, the source gives them in different places.

Experiments:
Hymenolepsis nana = experiment: Activity against tapeworms Hymenolepsis nana in mice; assay type: in vivo, Hymenolepsis nana (infected Albimo mice); conditions: Mus musculus, po, 72 h, read-out: Activity: % of infected mice getting 100% clearance
Method: The anthelmintic properties of the products of the invention have been determined as follows:
Albimo mice of either sex (18-20 g.weight range) were administered by gavage 0.2 ml of the standard inoculum (containing 1000 viable eggs). 20 days later, the faecal matter was checked for Hymenolipis nana eggs. Mice showing the presence of H nana eggs were taken for experiments. They were classified on the weight basis. 5 animals were taken in each cage.
Compounds of the invention under investigation were suspended in 0.2% tragacanth. Concentrations were adjusted in such a way that 0.2 ml conformed to particular dosage schedule for each compound. They were administered by gavage in fasting condition in the morning on 21st day post infection, once daily for 3 consecutive days. For each set of test compound group, one cage of infected control mice was kept. These received saline for 3 days.
After 3 consecutive days of administration, all mice were kept fasting on the subsequent day (24th day post infection) and sacrificed on the 25th day. Results of surviving mice only have been taken. From each mouse, the whole intestine including caecum was collected in a petri dish with water. It was cut open longitudinally and was examined for adult worms and scolices. Absolute clearance of worms and scolices in individual mouse was taken as a criterion for assessing the results of each group.
The data on some of the compounds studied are represented in Table II

plant pathogenic fungi = conditions: C.A. Vol. 62, 14569e; cited from earlier work
Staph. aureus = experiment: Antimicrobial serial dilution (MIC), S.a; assay type: cell-based; conditions: Staphylococcus aureus
S. typhi = experiment: Antimicrobial serial dilution (MIC), S.t; assay type: cell-based; conditions: Salmonella enterica
S.Shigae = experiment: microbe, parasite or virus in culture; assay type: cell-based; conditions: Shigella dysenteriae, read-out: MIC S.s
E.coli = experiment: Antimicrobial serial dilution (MIC), E.c.; assay type: cell-based; conditions: Escherichia coli
Proteus vulgaris ox 19 = experiment: Antimicrobial serial dilution (MIC), Pr.ox; assay type: cell-based; conditions: OX19
Ps. aeruginosa = experiment: Antimicrobial serial dilution (MIC), P.a; assay type: cell-based; conditions: Pseudomonas aeruginosa
[1] = tested on: antibiotic resistant Staph aureus; experiment: Antimicrobial serial dilution (MIC), A/R S.a; assay type: cell-based; conditions: Staphylococcus aureus, read-out: MIC A/R S.a
[2] = 400 mg/kg/day × 3 days, gavage, surviving mice only

`O=C(Nc1ccccc1)Oc1ccc(C=C[N+](=O)[O-])cc1` gave a responders at 350 mg/kg (Hymenolepsis nana) of 90%.

`Cc1ccc(NC(=O)Oc2ccc(C=C[N+](=O)[O-])cc2)cc1` showed a responders at 400 mg/kg (Hymenolepsis nana) of 94%.

Molecule `CCCCNC(=O)Oc1ccc(C=C(C)[N+](=O)[O-])cc1Cl` has a responders at 400 mg/kg (Hymenolepsis nana; [2]) of 100%.

Work on `CC(=Cc1ccc(OC(=O)Nc2ccccc2)c(Cl)c1)[N+](=O)[O-]` yielded a responders at 400 mg/kg (Hymenolepsis nana; [2]) of 100%.

Work on `CC(=Cc1ccc(OC(=O)Nc2ccc(C)cc2)c(Cl)c1)[N+](=O)[O-]` yielded a responders at 400 mg/kg (Hymenolepsis nana; [2]) of 100%.

For `O=C(Nc1ccc(Br)cc1)Oc1cccc(C=C[N+](=O)[O-])c1`, the responders at 400 mg/kg (Hymenolepsis nana) was 100%.

Work on `CC(=Cc1cccc(OC(=O)Nc2ccccc2)c1)[N+](=O)[O-]` yielded a responders at 400 mg/kg (Hymenolepsis nana; [2]) of 100%.

Work on `CC(=Cc1cccc(OC(=O)Nc2ccc(C)cc2)c1)[N+](=O)[O-]` yielded a responders at 200 mg/kg (Hymenolepsis nana; 200 mg/kg/day × 3 days, gavage, surviving mice only) of 100%.

In the case of `O=[N+]([O-])C=Cc1ccc(O)c([N+](=O)[O-])c1` [3-nitro-4-hydroxy-β-nitrostyrene], the “antifungal properties against plant pathogenic fungi” value (plant pathogenic fungi) is listed as “antifungal properties against plant pathogenic fungi”.

With `CC(=Cc1ccc(OC(=O)Nc2ccc(C)cc2)cc1)[N+](=O)[O-]` [drawing 3] the MIC (Staph. aureus) was 6.25 µg/mL (≈ 20 µM), the MIC (S. typhi) was 50 µg/mL (≈ 160 µM) and the MIC (S.Shigae) was 12.5 µg/mL (≈ 40 µM). For the same molecule, the MIC (E.coli) was 6.25 µg/mL (≈ 20 µM), the MIC (Proteus vulgaris ox 19) was 6.25 µg/mL (≈ 20 µM) and the MIC (Ps. aeruginosa) was no less than 50 µg/mL. For the same molecule, the MIC [1] was 6.25 µg/mL (≈ 20 µM).

Molecule `CC(=Cc1ccc(OC(=O)Nc2ccc(Br)cc2)cc1)[N+](=O)[O-]` [drawing 4] has an MIC (Staph. aureus) of 6.25 µg/mL (≈ 16.6 µM), an MIC (S. typhi) of no less than 50 µg/mL and an MIC (S.Shigae) of 6.25 to 12.5 µg/mL (≈ 16.6 to 33.1 µM). The MIC (E.coli) was 6.25 µg/mL (≈ 16.6 µM), the MIC (Proteus vulgaris ox 19) was 6.25 µg/mL (≈ 16.6 µM) and the MIC (Ps. aeruginosa) was no less than 50 µg/mL. For the same molecule, the MIC [1] was 12.5 µg/mL (≈ 33.1 µM).

With `CCCCNC(=O)Oc1ccc(C=C(C)[N+](=O)[O-])cc1` [drawing 5] the MIC (Staph. aureus) was 6.25 µg/mL (≈ 22.5 µM), the MIC (S. typhi) was 50 µg/mL (≈ 180 µM) and the MIC (S.Shigae) was 12.5 µg/mL (≈ 44.9 µM). It also gave an MIC (E.coli) of 6.25 to 12.5 µg/mL (≈ 22.5 to 44.9 µM), an MIC (Proteus vulgaris ox 19) of 6.25 µg/mL (≈ 22.5 µM) and an MIC (Ps. aeruginosa) of no less than 50 µg/mL. The MIC [1] was 6.25 µg/mL (≈ 22.5 µM).

In the case of `CC(=Cc1ccc(OC(=O)NC2CCCCC2)cc1)[N+](=O)[O-]` [drawing 6], the MIC (Staph. aureus) is reported as 3.12 µg/mL (≈ 10.3 µM), the MIC (S. typhi) is reported as 50 µg/mL (≈ 164 µM) and the MIC (S.Shigae) is reported as 12.5 µg/mL (≈ 41.1 µM). For the same molecule, the MIC (E.coli) was 6.12 to 12.5 µg/mL (≈ 20.1 to 41.1 µM), the MIC (Proteus vulgaris ox 19) was 6.25 to 12.5 µg/mL (≈ 20.5 to 41.1 µM) and the MIC (Ps. aeruginosa) was no less than 50 µg/mL. It also gave an MIC [1] of 3.12 µg/mL (≈ 10.3 µM).

`CC(=Cc1ccc(OC(=O)Nc2ccccc2)cc1)[N+](=O)[O-]` [drawing 7] showed an MIC (Staph. aureus) of 6.25 µg/mL (≈ 21 µM), an MIC (S. typhi) of 50 µg/mL (≈ 168 µM) and an MIC (S.Shigae) of 6.25 µg/mL (≈ 21 µM). It also gave an MIC (E.coli) of 6.25 µg/mL (≈ 21 µM), an MIC (Proteus vulgaris ox 19) of 12.5 µg/mL (≈ 41.9 µM) and an MIC (Ps. aeruginosa) of no less than 50 µg/mL. The MIC [1] was 3.12 to 6.25 µg/mL (≈ 10.5 to 21 µM).

Work on `CC(=Cc1cccc(O)c1)[N+](=O)[O-]` [drawing 8] yielded an MIC (Staph. aureus) of 3.12 µg/mL (≈ 17.4 µM), an MIC (S. typhi) of 50 µg/mL (≈ 279 µM) and an MIC (S.Shigae) of 3.12 µg/mL (≈ 17.4 µM). It also gave an MIC (E.coli) of 3.12 µg/mL (≈ 17.4 µM), an MIC (Proteus vulgaris ox 19) of 3.12 µg/mL (≈ 17.4 µM) and an MIC (Ps. aeruginosa) of 50 µg/mL (≈ 279 µM). It also gave an MIC [1] of 3.12 µg/mL (≈ 17.4 µM).
